Measurements reported in patent US20040242566A1, “Dipeptidyl peptidase inhibitors” (Syrrx, Inc., priority 2003, published 2004).

Assay: in vitro
Details: rat, rat liver microsomes, pH 7.4
Procedure: Several compounds were evaluated for stability in rat liver microsomes.
The test compounds (1 p) were incubated at 37° C. in phosphate buffer (50 mM, pH 7.4) containing rat liver microsomes (1 mg/mL protein) and NADPH (Nicotinamide Adenine Dinucleotide Phosphate, reduced form) (4 mM). The incubation mixtures were quenched with trichloroacetic acid (0.3 M) over 0, 5, 15, 30 min time-course. Quenched solutions were centrifuged and supernatants were transferred for LC/MS quantitation. The half life of a test compounds was derived from the compound stability curve over the time course.

SMILES | half-life at 1 p [min]
N#Cc1ccccc1Cn1c(N2CCCC(N)C2)nc2ccccc2c1=O (stereo not drawn) [Example 1, 2-[2-(3-Amino-piperidin-1-yl)-4-oxo4H-quinazolin-3-ylmethyl]-benzonitrile] | 2.5
COc1cc2nc(N3CCCC(N)C3)n(Cc3ccccc3C#N)c(=O)c2cc1OC (stereo not drawn) [Example 2, 2-[2-(3-Amino-piperidin-1-yl)-6,7-dimethoxy-4-oxo-4H-quinazolin-3-ylmethyl]-benzonitrile] | 107
N#Cc1ccccc1Cn1c(N2CCCC(N)C2)nc2ccc(F)cc2c1=O (stereo not drawn) [Example 6, 2-[2-(3-Amino-piperidin-1-yl)-6-fluoro4-oxo4H-quinazolin-3-ylmethyl]-benzonitrile] | 31
